Reference: patent publication US11352358B2, “FXR agonist” (XUANZHU BIOPHARMACEUTICAL CO., LTD., priority 2017, dated 2022)

Columns and labels:
SHP mRNA in AML12 cells = experiment: Relative expression of SHP mRNA in AML12 cells, EC50 (Experimental Example 4); type: cell-based; details: Mus musculus, 24 hrs
Experimental: compounds of the present invention (for their chemical names and preparation methods, see the preparation example for each compound).
AML12 cells: mouse liver cells.
Control: compound 1-1B with a structure shown as follows, prepared according to a prior art method (for detailed information, see patent application WO2012087519A1).
Cells were digested with pancreatin and collected, and the concentration of the cells was determined; according to the counting result, the cells were resuspended to a density of 7.5×10^4 cells/mL; 1 mL of the cell suspension was inoculated in each well of a 12-well cell culture plate; and the culture plate was placed in an incubator and cultured under the conditions of 37° C. and 5% CO2 for 24 hrs.
The compound were diluted to 1000, 200, 8, 1.6, 0.32, 0.128, 0.0256 and 0.00512 μM with DMSO. Compound solutions of different concentrations obtained in the previous step were further diluted by 1000 times with media to obtain working solutions, and a medium containing 0.1% of DMSO was adopted as a control group. The cell culture plate was taken out from the incubator, the medium was removed, and the working solutions and the control medium were added. The culture plate was placed back into the incubator and cultured under the conditions of 37° C. and 5% CO2 for 24 hrs.
after treatment for 24 hrs, the cell culture plate was taken out from the incubator, and the medium was removed from the plate; the cells were rinsed three times with pre-cooled (4° C.) PBS (phosphate buffer solution); and 200 μL of pancreatin (preheated to 37° C.) was added to each well, and the plate was then gently shaken such that the pancreatin could evenly cover the plate bottom. The culture plate was then placed back into the incubator and incubated until the cells were separated from the plate bottom. 1 mL of medium was added to terminate digestion. […]

[1] = Liver microsome metabolism stability, rat liver microsome; type: in vitro ADME, SD rat; details: 0.5 mg protein/mL, test sample 1 μM, β-NADPH
Experimental: Test samples: the homemade compounds 1, 2, 4 and 5 of the present invention (for their chemical names and preparation methods, see the preparation example for each compound).
a mixed liver microsomes of SD rat and human both purchased from XenoTech, with batch Nos.: 1410271 (SD rat) and 1410013 (human) respectively, wherein the microsomal protein concentrations both were 20 mg mL^−1;
experimental promoter β-NADPH purchased from Roche (batch No.: 524F0231); and a phosphate buffer solution (pH 7.4) made in the lab.
An appropriate amount of the test sample powder was weighed accurately, and dissolved in an appropriate amount of dimethyl sulfoxide (DMSO) to a concentration of 1 mM; and the solution was then diluted by 20 times with methanol to yield a 50 μM working solution.
(1) According to the proportions in table 3 “Composition of the incubation system for liver microsome metabolism stability experiment” above, for each compound, 6 mL of PBS (100 mM), 0.6 mL of MgCl2 solution (20 mM) and 3.66 mL of H2O were made into a mixed solution 1 for the incubation system (not containing the microsomes, the test sample and β-NADPH).
(2) Liver microsomes (20 mg protein/mL) were taken from a refrigerator (−80° C.), and were placed on a thermostatic water bath oscillator (37° C.) and pre-incubated for 3 mins.
(3) For each compound, 1.88 mL of the mixed solution 1 for the incubation system was added with 55 μL of microsomes to obtain a mixed solution 2 for the incubation system (not containing the test sample and β-NADPH).
(4) Sample group (containing the microsomes and D-NADPH): 616 μL of mixed solution 2 for the incubation system was added with 14 μL of the test sample working solution (with a concentration of 50 μM), and with 70 μL of R-NADPH working solution (10 mM). The resulted solution was well mixed, and the resulted solution was then duplicated. The time points of sampling were at 0 min, 5th min, 10th min, 20th min, 30th min and 60th min.
(5) Control group (containing the microsomes, and water instead of D-NADPH): 264 μL of mixed solution 2 for the incubation system was added with 6 μL of the test sample working solution (50 μM), and with 30 μL of water. The resulted solution was well mixed, and the resulted solution was then duplicated. The time points of sampling were at 0 min and 60th min.
(6) 50 μL of sample was taken from an incubating sample tube at each predetermined time point, added to a terminating sample tube (containing 300 μL of cold terminator), and vortexed; and the reaction was terminated.
(7) after 10 mins of vortexing, the solution was centrifuged for 5 mins (12,000 rpm).
(8) 100 μL of supernatant was taken and added with 100 μL of water, and the mixture solution was thoroughly vortexed; and the solution was then analyzed by LC-MS/MS.
Percentages of residual contents were calculated according to the following formula.

EC50 (SHP mRNA in AML12 cells): 0.76 nM | Residual content (%) after 60 minutes of incubation [1]: 77%
SMILES: O=C(O)c1ccc2nc(N3C[C@@H]4C[C@H]3C[C@H]4OCc3c(-c4c(Cl)cccc4Cl)noc3C3CC3)sc2c1 [Compound 2-1, 2-((1S, 4S, 5R)-5-((5-cyclopropyl-3-(2,6-dichlorophenyl)isoxazol-4-yl)methoxy)-2-azabicyclo[2.2.1]heptan-2-yl)benzo[d]thiazole-6-carboxylic acid]
